Test results taken from US20240376094A2, “SELECTIVE BCL-XL PROTAC COMPOUNDS AND METHODS OF USE” (Les Laboratoires Servier, priority 2021, published 2024).

What was measured:
[1] = test system: EBC-1 lung cancer cell line; assay: EBC-1 cell proliferation, CellTiter-Glo assay; type: cell-based; details: Homo sapiens, 120 h; Ebc-1 cell viability, CTG assay, 5 days of treatment; read-out: CTG 5 day Ebc1 GI50
Procedure, shortened: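 EBC-1 cells seeded at 1000 per well overnight, then exposed to 10-point dilutions (0.508 nM–10 μM final) for 5 days at 37 °C, in triplicate. ATP luminescence by CellTiter-Glo, normalised to untreated wells; GI50 from four-parameter logistic fit, runs valid only with at least one doubling.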

HiBiT-tagged BCL-xL = target: T1, HiBiT-tagged BCL-xL (Homo sapiens, UniProt Q07817); assay: NCI-H1650 BCL-xL protein levels, Nano-Glo HiBiT Lytic Detection; type: cell-based; details: NCI-H1650 expressing HiBiT-tagged BCL-xL, overnight incubation, read-out: Bcl-xl HIBIT NCIH1650 DC50
T1 construct: expressed in transfected cells; host or cells: NCI-H1650 (ATCC No. CRL-5883), engineered HiBiT cell line
T1 sequence (Q07817 whole entry): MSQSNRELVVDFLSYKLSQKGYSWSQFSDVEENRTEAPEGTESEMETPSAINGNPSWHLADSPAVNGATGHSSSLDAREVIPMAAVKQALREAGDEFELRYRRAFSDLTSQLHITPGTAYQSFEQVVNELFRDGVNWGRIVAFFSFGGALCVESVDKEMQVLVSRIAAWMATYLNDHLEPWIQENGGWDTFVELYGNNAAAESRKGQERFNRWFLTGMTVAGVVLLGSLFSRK
Procedure, shortened: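 NCI-H1650 cells expressing HiBiT-tagged BCL-xL (5000/well) were treated overnight at 37° C with 10 concentrations, final 0.508 nM-10 μM, in triplicate. Remaining BCL-xL measured by Nano-Glo HiBiT lytic luminescence, normalized to untreated cells; 50% values by four-parameter logistic fit.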

SMILES: Cc1ncsc1-c1ccc([C@H](C)NC(=O)[C@@H]2C[C@@H](O)CN2C(=O)[C@@H](NC(=O)CC23CC4CC(C2)CC(CC(=O)N2CCN(CC#Cc5ccc(OCCCc6sc(N7CCCc8c7nnc(Nc7nc9ccccc9s7)c8C)nc6C(=O)O)c(F)c5)CC2)(C4)C3)C(C)(C)C)cc1 [Example 42, 2-(3-(benzo[d]thiazol-2-ylamino)-4-methyl-6,7-dihydropyrido [2,3-c]pyridazin-8(5H)-yl)-5-(3-(2-fluoro-4-(3-(4-(2-((3S,5R)-3-(2-(((S)-1-((2S,4R)-4-hydroxy-2-(((S)-1-(4-(4-methylthiazol-5-yl)phenyl)ethyl)carbamoyl)pyrrolidin-1-yl)-3,3-dimethyl-1-oxobutan-2-yl)amino)-2-oxoethyl)adamantan-1-yl)acetyl)piperazin-1-yl)prop-1-yn-1-yl)phenoxy)propyl)thiazole-4-carboxylic acid]
- GI50 [1]: 21 nM
- DC50 (HiBiT-tagged BCL-xL): > 1670 nM
